Measurements taken from PubChem BioAssay AID328 (DTP/NCI, 2004).
“And” between values parts separate entries of the source, which are not always exact repeats. Identical values can stand only once. Toxic doses and inconclusive results are not listed.

System: BDF1 mice, P388 leukemia ip, median survival T/C
Assay: NCI In Vivo Anticancer Drug Screen. Data for tumor model P388 Leukemia (intraperitoneal) in B6D2F1 (BDF1) mice
Settings: endpoint: median survival time, higher = longer survival
Procedure, shortened: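 Steps: implant the tumour, treat one group with compound and another with vehicle, record survival, then divide treated by control.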

[1] = dose: 12.5 mg/kg/injection, schedule: Q01DX009 (ip), vehicle: saline
[2] = dose: 25.0 mg/kg/injection, schedule: Q01DX009 (ip), vehicle: saline
[3] = dose: 50.0 mg/kg/injection, schedule: Q01DX009 (ip), vehicle: saline
[4] = dose: 100.0 mg/kg/injection, schedule: Q01DX009 (ip), vehicle: Klucel (hydroxypropylcellulose) (HPC)
[5] = dose: 100.0 mg/kg/injection, schedule: Q04DX003 (ip), vehicle: Klucel (hydroxypropylcellulose) (HPC)
[6] = dose: 400.0 mg/kg/injection, schedule: Q01DX009 (ip), vehicle: Klucel (hydroxypropylcellulose) (HPC)
[7] = dose: 50.0 mg/kg/injection, schedule: Q01DX009 (ip), vehicle: saline with Tween-80
[8] = dose: 100.0 mg/kg/injection, schedule: Q01DX009 (ip), vehicle: saline with Tween-80
[9] = dose: 200.0 mg/kg/injection, schedule: Q01DX009 (ip), vehicle: saline with Tween-80
[10] = dose: 400.0 mg/kg/injection, schedule: Q01DX009 (ip), vehicle: saline with Tween-80
[11] = dose: 50.0 mg/kg/injection, schedule: Q04DX003 (ip), vehicle: saline with Tween-80
[12] = dose: 100.0 mg/kg/injection, schedule: Q04DX003 (ip), vehicle: saline with Tween-80
[13] = dose: 200.0 mg/kg/injection, schedule: Q04DX003 (ip), vehicle: saline with Tween-80
[14] = dose: 400.0 mg/kg/injection, schedule: Q04DX003 (ip), vehicle: saline with Tween-80
[15] = dose: 100.0 mg/kg/injection, schedule: Q01DX009 (ip), vehicle: saline
[16] = dose: 12.5 mg/kg/injection, schedule: Q04DX003 (ip), vehicle: saline with Tween-80
[17] = dose: 25.0 mg/kg/injection, schedule: Q04DX003 (ip), vehicle: saline with Tween-80

## NNc1cccc(C(F)(F)F)c1
[1]
  T/C: 106 % of control
[2]
  T/C: 104 % of control
[3]
  T/C: 117 % of control

## CC1Cc2ccccc2SC1(C)C (stereo not drawn)
[1]
  T/C: 101 % of control
[2]
  T/C: 114 % of control
[3]
  T/C: 115 % of control

## Cc1cnn(O)c(=NCCCl)n1
dose: 100.0 mg/kg/injection, schedule: Q04DX002 (ip), vehicle: saline with Tween-80
  T/C: 99 % of control
dose: 200.0 mg/kg/injection, schedule: Q04DX002 (ip), vehicle: saline with Tween-80
  T/C: 99 % of control
dose: 400.0 mg/kg/injection, schedule: Q04DX002 (ip), vehicle: saline with Tween-80
  T/C: 99 % of control

## COc1ccc(CCC(C)=O)cc1
[4]
  T/C: 100 % of control
[5]
  T/C: 95 % of control
dose: 200.0 mg/kg/injection, schedule: Q04DX003 (ip), vehicle: Klucel (hydroxypropylcellulose) (HPC)
  T/C: 110 % of control
[6]
  T/C: 109 % of control
dose: 400.0 mg/kg/injection, schedule: Q04DX003 (ip), vehicle: Klucel (hydroxypropylcellulose) (HPC)
  T/C: 105 % of control

## COc1cccc(C(=O)C=C(C(F)(F)F)C(F)(F)F)c1
dose: 11.0 mg/kg/injection, schedule: Q01DX009 (ip), vehicle: saline with Tween-80
  T/C: 109 % of control
dose: 16.5 mg/kg/injection, schedule: Q01DX009 (ip), vehicle: saline with Tween-80
  T/C: 109 % of control
dose: 25.0 mg/kg/injection, schedule: Q01DX009 (ip), vehicle: saline with Tween-80
  T/C: 113 % of control

## Cc1cc(O)c(C(c2ccc(N(C)C)cc2Cl)c2c(O)cc(C)[nH]c2=O)c(=O)[nH]1
[7]
  T/C: 99 % of control
[8]
  T/C: 115 % of control

## O=C(Nc1ccc([N+](=O)[O-])cc1Cl)N(CCO)C1CCCCC1
[8]
  T/C: 105 % of control
[9]
  T/C: 100 % of control
[10]
  T/C: 90 % of control

## CC1=C(N2CCN(c3ccc(Cl)cc3)CC2)C(=O)CC(C)(C)C1
[4]
  T/C: 110 % of control
dose: 200.0 mg/kg/injection, schedule: Q01DX009 (ip), vehicle: Klucel (hydroxypropylcellulose) (HPC)
  T/C: 105 % of control
[6]
  T/C: 100 % of control

## C[n+]1c(-c2ccc(Cl)cc2Cl)c2cc([N+](=O)[O-])ccc2c2ccccc21
dose: 3.12 mg/kg/injection, schedule: Q01DX009 (ip), vehicle: water
  T/C: 104 % of control
dose: 6.25 mg/kg/injection, schedule: Q01DX009 (ip), vehicle: water
  T/C: 88 % of control and 104 % of control and 112 % of control
dose: 12.5 mg/kg/injection, schedule: Q01DX009 (ip), vehicle: water
  T/C: 110 % of control and 119 % of control
dose: 25.0 mg/kg/injection, schedule: Q01DX009 (ip), vehicle: water
  T/C: 104 % of control (2×) and 112 % of control
dose: 50.0 mg/kg/injection, schedule: Q01DX009 (ip), vehicle: water
  T/C: 101 % of control

## Cc1ccsc1/C=N/NC(N)=S
[11]
  T/C: 117 % of control
[12]
  T/C: 117 % of control
[13]
  T/C: 115 % of control
[14]
  T/C: 92 % of control

## NC(=O)c1ccc(-c2c3ccccc3cc3c2ccc2ccccc23)cc1
[7]
  T/C: 95 % of control
[8]
  T/C: 89 % of control
[9]
  T/C: 89 % of control
[10]
  T/C: 106 % of control

## CCOC(=O)C(CCCCC(NC(C)=O)(C(=O)OCC)C(=O)OCC)(NC(C)=O)C(=O)OCC
[8]
  T/C: 95 % of control
[9]
  T/C: 100 % of control
[10]
  T/C: 104 % of control

## O=C1OC2CC=CCC2CC1O (stereo not drawn)
[1]
  T/C: 92 % of control
[2]
  T/C: 96 % of control
[3]
  T/C: 102 % of control
[15]
  T/C: 102 % of control

## C=C[C@@](C)(O)CC/C=C(/C)CCC=C(C)C
[8]
  T/C: 109 % of control

## O=C(O)/C=C/c1c[nH]c(=O)[nH]c1=O
dose: 25.0 mg/kg/injection, schedule: Q04DX003 (ip), vehicle: Klucel (hydroxypropylcellulose) (HPC)
  T/C: 101 % of control
dose: 50.0 mg/kg/injection, schedule: Q04DX003 (ip), vehicle: Klucel (hydroxypropylcellulose) (HPC)
  T/C: 101 % of control
[5]
  T/C: 115 % of control

## CSc1sc2ccccc2[n+]1C
[2]
  T/C: 100 % of control and 104 % of control
[3]
  T/C: 90 % of control and 120 % of control
[15]
  T/C: 86 % of control and 119 % of control

## COc1cc2c(cc1OC)[C@]13C[C@@H](OC)CC=C1CCN3CCC2
dose: 5.0 mg/kg/injection, schedule: Q01DX009 (ip), vehicle: alcohol
  T/C: 100 % of control
dose: 10.0 mg/kg/injection, schedule: Q01DX009 (ip), vehicle: alcohol
  T/C: 95 % of control
dose: 20.0 mg/kg/injection, schedule: Q01DX009 (ip), vehicle: alcohol
  T/C: 90 % of control
dose: 40.0 mg/kg/injection, schedule: Q01DX009 (ip), vehicle: alcohol
  T/C: 90 % of control

## C=C(C)C(=O)NCC(=O)Oc1ccc([N+](=O)[O-])cc1
[7]
  T/C: 86 % of control
[8]
  T/C: 102 % of control
[9]
  T/C: 93 % of control

## N#CN=CN1CCN(c2ccccn2)CC1
[7]
  T/C: 91 % of control
[8]
  T/C: 90 % of control
[9]
  T/C: 93 % of control

## CC(=O)NCC(S)c1ccc(Cl)cc1 (stereo not drawn)
[12]
  T/C: 118 % of control
[13]
  T/C: 95 % of control
[14]
  T/C: 90 % of control

## ClCC1CNC(c2ccccc2)O1 (stereo not drawn)
[16]
  T/C: 101 % of control
[17]
  T/C: 104 % of control

## CC(C)(C)c1cc(C(C)(C)O)c2c(c1)C(C)(C)OS2(C)Cl (stereo not drawn)
[16]
  T/C: 100 % of control
[17]
  T/C: 100 % of control
[11]
  T/C: 96 % of control

## CN1CCN(c2nn3nnnc3c3ccccc23)CC1
dose: 20.0 mg/kg/injection, schedule: Q01DX009 (ip), vehicle: saline with Tween-80
  T/C: 89 % of control
dose: 40.0 mg/kg/injection, schedule: Q01DX009 (ip), vehicle: saline with Tween-80
  T/C: 94 % of control
dose: 80.0 mg/kg/injection, schedule: Q01DX009 (ip), vehicle: saline with Tween-80
  T/C: 93 % of control

## Cc1ccc(C)c(NC(=O)c2cccc(Cl)c2)c1
[12]
  T/C: 104 % of control
[13]
  T/C: 100 % of control
[14]
  T/C: 104 % of control

## O=c1ccc2ccccc2o1
dose: 50.0 mg/kg/injection, schedule: Q01DX010 (ip), vehicle: saline
  T/C: 100 % of control
dose: 100.0 mg/kg/injection, schedule: Q01DX010 (ip), vehicle: saline
  T/C: 90 % of control
dose: 200.0 mg/kg/injection, schedule: Q01DX010 (ip), vehicle: saline
  T/C: 90 % of control
dose: 400.0 mg/kg/injection, schedule: Q01DX010 (ip), vehicle: saline
  T/C: 95 % of control

## Cc1ccc(-c2nc3ccccc3c(=O)n2/N=C/c2ccc(Cl)cc2Cl)cc1
[7]
  T/C: 100 % of control
[8]
  T/C: 89 % of control
[9]
  T/C: 90 % of control

## Cc1ccc(S(=O)(=O)OCC(C)(C)NC(=O)c2ccc([N+](=O)[O-])cc2)cc1
dose: 50.0 mg/kg/injection, schedule: Q01DX001 (ip), vehicle: saline with Tween-80
  T/C: 100 % of control
dose: 100.0 mg/kg/injection, schedule: Q01DX001 (ip), vehicle: saline with Tween-80
  T/C: 105 % of control
dose: 200.0 mg/kg/injection, schedule: Q01DX001 (ip), vehicle: saline with Tween-80
  T/C: 110 % of control

## CN(C)C(=S)/N=c1\ss/c(=N\C(=S)N(C)C)n1-c1ccccc1
[7]
  T/C: 100 % of control
[8]
  T/C: 95 % of control
[9]
  T/C: 95 % of control

## COc1ccc(NC(=S)NN)cc1
[17]
  T/C: 100 % of control
[11]
  T/C: 100 % of control
dose: 66.0 mg/kg/injection, schedule: Q04DX003 (ip), vehicle: saline with Tween-80
  T/C: 100 % of control
[12]
  T/C: 100 % of control
dose: 150.0 mg/kg/injection, schedule: Q04DX003 (ip), vehicle: saline with Tween-80
  T/C: 90 % of control

## COc1cc(NS(C)(=O)=O)ccc1Nc1c2ccc(Cl)cc2nc2c(OC)cccc12
dose: 0.8 mg/kg/injection, schedule: Q01DX005 (iv), vehicle: water
  T/C: 106 % of control
dose: 0.8 mg/kg/injection, schedule: Q04DX003 (iv), vehicle: water
  T/C: 105 % of control
dose: 1.6 mg/kg/injection, schedule: Q01DX005 (iv), vehicle: water
  T/C: 99 % of control
dose: 1.6 mg/kg/injection, schedule: Q04DX003 (iv), vehicle: water
  T/C: 100 % of control
dose: 3.3 mg/kg/injection, schedule: Q01DX005 (iv), vehicle: water
  T/C: 114 % of control
dose: 3.3 mg/kg/injection, schedule: Q04DX003 (iv), vehicle: water
  T/C: 109 % of control
dose: 6.5 mg/kg/injection, schedule: Q04DX003 (iv), vehicle: water
  T/C: 124 % of control
dose: 12.5 mg/kg/injection, schedule: Q01DX009 (ip), vehicle: saline with Tween-80
  T/C: 95 % of control
dose: 26.0 mg/kg/injection, schedule: Q04DX003 (iv), vehicle: water
  T/C: 250 % of control
